Measured values taken from ChEMBL document CHEMBL4811298, “Discovery of novel class of histone deacetylase inhibitors as potential anticancer agents” (Bioorg Med Chem, 2021).
Activity calls are given as the source filed them. No cut-off for these calls is given here.

How the values were obtained:
[1] = Metabolic stability of the compound in CD-1 mouse liver microsomes assessed as parent compound remaining at 1 uM measured after 60 mins in absence of NADPH by LC-MS/MS analysis; assay type: ADME, Microsome; conditions: read-out: Stabilty
[2] = target: Histone deacetylase 3/Nuclear receptor corepressor 2 (HDAC3/NCoR2) (Homo sapiens, UniProt O15379); assay: Inhibition of C-terminal His-tagged human recombinant full length HDAC3 (1 to 428 residues)/N-terminal GST-tagged human recombinant NCOR2 (395 to 489 residues) expressed in baculovirus-infected Sf9 cells assessed as reduction in 7-amino-4-methylcoumarin release using fluorogenic HDAC substrate 3 measured every 5 mins by fluorescence based analysis
Cytochrome P450 3A4 = Cytochrome P450 3A4 (Homo sapiens, UniProt P08684); assay: Inhibition of human CYP3A4 expressed in insect supersomes assessed as reduction in […] formation using midazolam as substrate measured after 30 mins in presence of NADPH by LC-MS/MS analysis; assay type: ADME
Homo sapiens [3] = species on record: Homo sapiens; assay: (§1) Selectivity ratio of IC50 for inhibition of C-terminal His-tagged human HDAC9 (604 to 1066 residues) expressed in baculovirus-infected Sf9 cells to IC50 for inhibition of C-terminal FLAG/His-tagged human recombinant HDAC1 (1 to 482 residues) expressed in baculovirus-infected Sf9 cells
MCF7 [4] = assay: Induction of cell cycle arrest in human MCF7 cells assessed downregulation of CDK1 gene expression at 3 uM incubated for 24 hrs by whole transcriptome analysis; assay type: functional, cell-based
MCF7 [5] = assay: Downregulation of SIRT4 gene expression in human MCF7 cells at 3 uM incubated for 24 hrs by whole transcriptome analysis; assay type: functional, cell-based
Homo sapiens [6] = species on record: Homo sapiens; assay: (§2) Selectivity ratio of IC50 for inhibition of N-terminal GST-tagged human HDAC7 (518 to end residues) expressed in baculovirus-infected Sf9 cells to IC50 for inhibition of C-terminal 6XHis-tagged human recombinant full length HDAC2 (1 to 488 residues) expressed in baculovirus-infected Sf9 cells
MCF7 [7] = assay: Induction of cell cycle arrest in human MCF7 cells assessed as accumulation at subG1 phase at 1 uM incubated for 24 to 72 hrs by PI staining based flow cytometric analysis; assay type: functional; conditions: time 24-72 hrs
Histone deacetylase 2 = Histone deacetylase 2 (Homo sapiens, UniProt Q92769); assay type: cell-based, Sf9
Homo sapiens [8] = species on record: Homo sapiens; assay: as §1, with “recombinant full length HDAC3 (1” for “HDAC9 (604”, “428 residues)/N-terminal GST-tagged human recombinant NCOR2 (395 to 489” for “1066”
Homo sapiens [9] = species on record: Homo sapiens; assay: as §2, with “C-terminal His-tagged human recombinant full length HDAC3 (1 to 428 residues)/N-terminal” for “N-terminal”, “recombinant NCOR2 (395” for “HDAC7 (518”, “489” for “end”
Histone deacetylase 7 = target: T1, Histone deacetylase 7 (Homo sapiens, UniProt Q8WUI4); assay: Inhibition of N-terminal GST-tagged human HDAC7 (518 to end residues) expressed in baculovirus-infected Sf9 cells assessed as reduction in 7-amino-4-methylcoumarin release measured every 5 mins by fluorescence based analysis
T1 sequence (Q8WUI4 whole entry): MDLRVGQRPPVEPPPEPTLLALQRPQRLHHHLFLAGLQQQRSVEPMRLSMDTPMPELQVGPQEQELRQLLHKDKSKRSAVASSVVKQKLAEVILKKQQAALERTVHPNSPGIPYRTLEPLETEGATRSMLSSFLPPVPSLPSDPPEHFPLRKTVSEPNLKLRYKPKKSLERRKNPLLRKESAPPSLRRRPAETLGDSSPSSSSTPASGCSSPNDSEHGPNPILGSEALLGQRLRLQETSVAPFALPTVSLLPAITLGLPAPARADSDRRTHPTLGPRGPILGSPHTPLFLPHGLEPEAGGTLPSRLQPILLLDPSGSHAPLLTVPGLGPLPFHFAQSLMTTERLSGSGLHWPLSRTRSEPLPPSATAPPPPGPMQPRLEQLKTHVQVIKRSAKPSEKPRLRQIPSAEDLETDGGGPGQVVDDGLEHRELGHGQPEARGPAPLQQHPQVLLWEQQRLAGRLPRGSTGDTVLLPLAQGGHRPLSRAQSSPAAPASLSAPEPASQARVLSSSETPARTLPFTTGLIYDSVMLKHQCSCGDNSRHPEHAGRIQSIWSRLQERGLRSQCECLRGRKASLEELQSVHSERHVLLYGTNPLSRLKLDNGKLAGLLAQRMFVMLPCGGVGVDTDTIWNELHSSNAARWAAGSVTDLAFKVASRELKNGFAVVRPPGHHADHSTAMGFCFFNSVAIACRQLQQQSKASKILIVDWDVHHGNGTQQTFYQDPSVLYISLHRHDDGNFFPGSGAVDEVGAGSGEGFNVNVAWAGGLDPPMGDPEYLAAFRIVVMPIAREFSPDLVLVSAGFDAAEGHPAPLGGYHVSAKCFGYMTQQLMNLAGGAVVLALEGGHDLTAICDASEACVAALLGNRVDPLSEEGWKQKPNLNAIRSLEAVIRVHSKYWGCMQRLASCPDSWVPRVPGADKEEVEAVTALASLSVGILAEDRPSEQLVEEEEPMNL

MCF7 [10] = assay: Antiproliferative activity against human MCF7 cells assessed as reduction in cell viability incubated for 48 hrs by SRB assay; assay type: functional, cell-based; conditions: MCF7, 48 h
[11] = target: Histone deacetylase (Homo sapiens) (UniProt Q13547+O15379+Q9UBN7+Q92769+Q9UQL6+Q8WUI4+Q9BY41+Q96DB2+P56524+Q9UKV0+Q969S8); assay: Inhibition of HDAC in human MCF7 cells assessed as increase in acetylated histone H4 mRNA level at 3 uM incubated for 24 hrs by whole transcriptome analysis; assay type: cell-based
MCF7 [12] = assay: Downregulation of NFkB2 gene expression in human MCF7 cells at 3 uM incubated for 24 hrs by whole transcriptome analysis; assay type: functional, cell-based
MCF7 [13] = assay: Induction of cell cycle arrest in human MCF7 cells assessed downregulation of RB1 gene expression at 3 uM incubated for 24 hrs by whole transcriptome analysis; assay type: functional, cell-based
Homo sapiens [14] = species on record: Homo sapiens; assay: Selectivity ratio of IC50 for inhibition of N-terminal GST-tagged human HDAC7 (518 to end residues) expressed in baculovirus-infected Sf9 cells to IC50 for inhibition of C-terminal FLAG/His-tagged human recombinant HDAC1 (1 to 482 residues) expressed in baculovirus-infected Sf9 cells
[15] = Half life in human liver microsomes at 1 uM measured after 60 mins in presence of NADPH by LC-MS/MS analysis; assay type: ADME, Microsome
[16] = Downregulation of HDAC1 gene expression in human MCF7 cells at 3 uM incubated for 24 hrs by whole transcriptome analysis relative to control; assay type: functional
[17] = Metabolic stability of the compound in human liver microsomes assessed as parent compound remaining at 1 uM measured after 60 mins in absence of NADPH by LC-MS/MS analysis; assay type: ADME, Microsome; conditions: read-out: Stabilty
Homo sapiens [18] = species on record: Homo sapiens; assay: Selectivity ratio of IC50 for inhibition of N-terminal GST-tagged/C-terminal His-tagged human recombinant HDAC4 (627 to 1084 residues) expressed in baculovirus-infected Sf9 cells to IC50 for inhibition of C-terminal FLAG/His-tagged human recombinant HDAC1 (1 to 482 residues) expressed in baculovirus-infected Sf9 cells

Chain of Histone deacetylase 3/Nuclear receptor corepressor 2 (HDAC3/NCoR2) (O15379 whole entry, the tested form may be a part): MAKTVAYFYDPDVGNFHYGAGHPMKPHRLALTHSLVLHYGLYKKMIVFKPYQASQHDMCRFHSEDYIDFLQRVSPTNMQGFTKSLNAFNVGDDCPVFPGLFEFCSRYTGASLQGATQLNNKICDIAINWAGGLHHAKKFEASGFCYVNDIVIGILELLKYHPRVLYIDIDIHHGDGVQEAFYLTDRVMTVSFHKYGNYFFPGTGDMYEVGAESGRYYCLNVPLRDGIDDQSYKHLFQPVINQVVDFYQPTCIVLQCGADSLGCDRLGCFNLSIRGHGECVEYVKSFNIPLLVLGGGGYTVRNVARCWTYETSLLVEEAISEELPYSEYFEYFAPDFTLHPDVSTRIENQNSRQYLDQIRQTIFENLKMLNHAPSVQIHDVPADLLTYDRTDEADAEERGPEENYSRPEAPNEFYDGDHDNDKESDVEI
Chain of Histone deacetylase 3/Nuclear receptor corepressor 2 (HDAC3/NCoR2) (Q9Y618 whole entry, further chain, the tested form may be a part): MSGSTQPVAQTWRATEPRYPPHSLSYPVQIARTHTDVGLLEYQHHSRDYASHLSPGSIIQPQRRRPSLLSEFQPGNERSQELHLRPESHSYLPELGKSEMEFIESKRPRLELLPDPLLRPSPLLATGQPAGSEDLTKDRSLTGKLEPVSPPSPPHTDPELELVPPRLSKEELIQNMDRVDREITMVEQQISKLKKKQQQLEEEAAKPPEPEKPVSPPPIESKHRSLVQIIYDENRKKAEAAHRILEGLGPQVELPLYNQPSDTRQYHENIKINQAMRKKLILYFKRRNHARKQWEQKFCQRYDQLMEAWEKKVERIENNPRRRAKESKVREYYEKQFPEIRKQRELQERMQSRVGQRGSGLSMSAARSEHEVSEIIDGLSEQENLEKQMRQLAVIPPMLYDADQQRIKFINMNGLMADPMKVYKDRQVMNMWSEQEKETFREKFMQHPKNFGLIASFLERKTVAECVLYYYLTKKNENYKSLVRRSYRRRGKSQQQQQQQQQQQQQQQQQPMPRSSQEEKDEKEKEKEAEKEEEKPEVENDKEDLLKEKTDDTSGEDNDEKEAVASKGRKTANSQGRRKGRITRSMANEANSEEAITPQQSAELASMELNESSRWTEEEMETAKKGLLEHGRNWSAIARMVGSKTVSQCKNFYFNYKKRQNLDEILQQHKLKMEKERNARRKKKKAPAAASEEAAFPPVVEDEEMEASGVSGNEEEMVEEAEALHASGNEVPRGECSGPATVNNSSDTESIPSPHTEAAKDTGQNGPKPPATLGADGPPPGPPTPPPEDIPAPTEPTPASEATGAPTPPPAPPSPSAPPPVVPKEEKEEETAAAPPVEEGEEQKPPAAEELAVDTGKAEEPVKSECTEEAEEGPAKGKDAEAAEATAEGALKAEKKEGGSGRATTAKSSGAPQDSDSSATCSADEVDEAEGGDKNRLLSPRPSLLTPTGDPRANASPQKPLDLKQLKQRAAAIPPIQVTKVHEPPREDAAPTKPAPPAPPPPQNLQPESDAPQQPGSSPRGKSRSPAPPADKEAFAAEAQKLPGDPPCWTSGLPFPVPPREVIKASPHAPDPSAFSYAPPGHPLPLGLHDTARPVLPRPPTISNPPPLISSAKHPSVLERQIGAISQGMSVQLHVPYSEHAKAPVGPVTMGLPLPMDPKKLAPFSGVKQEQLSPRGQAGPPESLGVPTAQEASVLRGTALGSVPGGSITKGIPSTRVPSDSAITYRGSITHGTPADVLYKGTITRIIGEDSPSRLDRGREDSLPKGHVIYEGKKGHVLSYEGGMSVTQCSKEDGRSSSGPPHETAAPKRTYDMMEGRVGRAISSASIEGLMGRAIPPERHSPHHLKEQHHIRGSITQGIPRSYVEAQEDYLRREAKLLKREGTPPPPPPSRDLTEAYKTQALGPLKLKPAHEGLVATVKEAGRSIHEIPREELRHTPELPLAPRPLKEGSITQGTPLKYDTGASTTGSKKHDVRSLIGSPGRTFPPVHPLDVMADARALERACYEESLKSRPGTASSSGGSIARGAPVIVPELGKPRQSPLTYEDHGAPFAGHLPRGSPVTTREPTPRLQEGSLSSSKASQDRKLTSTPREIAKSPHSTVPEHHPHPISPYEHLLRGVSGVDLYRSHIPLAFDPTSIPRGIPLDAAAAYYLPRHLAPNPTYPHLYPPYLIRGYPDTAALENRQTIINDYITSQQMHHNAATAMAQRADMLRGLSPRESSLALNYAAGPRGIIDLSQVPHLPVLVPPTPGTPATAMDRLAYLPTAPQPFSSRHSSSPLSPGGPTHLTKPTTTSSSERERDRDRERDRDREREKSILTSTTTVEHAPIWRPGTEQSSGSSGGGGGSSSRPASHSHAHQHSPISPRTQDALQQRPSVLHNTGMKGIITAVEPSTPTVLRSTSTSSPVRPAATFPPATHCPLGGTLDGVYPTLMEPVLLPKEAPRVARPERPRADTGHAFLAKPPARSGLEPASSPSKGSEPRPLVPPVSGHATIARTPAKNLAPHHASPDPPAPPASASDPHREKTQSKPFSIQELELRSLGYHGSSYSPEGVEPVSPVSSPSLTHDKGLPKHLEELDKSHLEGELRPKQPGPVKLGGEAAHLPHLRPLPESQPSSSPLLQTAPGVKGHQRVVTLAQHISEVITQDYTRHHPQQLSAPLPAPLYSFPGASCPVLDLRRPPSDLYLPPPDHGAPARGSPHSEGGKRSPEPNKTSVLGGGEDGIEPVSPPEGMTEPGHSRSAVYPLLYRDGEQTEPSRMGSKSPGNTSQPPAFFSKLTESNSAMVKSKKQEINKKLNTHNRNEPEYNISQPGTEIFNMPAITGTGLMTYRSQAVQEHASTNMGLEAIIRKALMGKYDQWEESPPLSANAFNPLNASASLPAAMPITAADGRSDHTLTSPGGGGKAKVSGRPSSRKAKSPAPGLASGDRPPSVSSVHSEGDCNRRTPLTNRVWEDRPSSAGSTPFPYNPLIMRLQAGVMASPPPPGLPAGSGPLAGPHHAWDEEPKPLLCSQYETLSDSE
Chain of Cytochrome P450 3A4 (P08684 whole entry, the tested form may be a part): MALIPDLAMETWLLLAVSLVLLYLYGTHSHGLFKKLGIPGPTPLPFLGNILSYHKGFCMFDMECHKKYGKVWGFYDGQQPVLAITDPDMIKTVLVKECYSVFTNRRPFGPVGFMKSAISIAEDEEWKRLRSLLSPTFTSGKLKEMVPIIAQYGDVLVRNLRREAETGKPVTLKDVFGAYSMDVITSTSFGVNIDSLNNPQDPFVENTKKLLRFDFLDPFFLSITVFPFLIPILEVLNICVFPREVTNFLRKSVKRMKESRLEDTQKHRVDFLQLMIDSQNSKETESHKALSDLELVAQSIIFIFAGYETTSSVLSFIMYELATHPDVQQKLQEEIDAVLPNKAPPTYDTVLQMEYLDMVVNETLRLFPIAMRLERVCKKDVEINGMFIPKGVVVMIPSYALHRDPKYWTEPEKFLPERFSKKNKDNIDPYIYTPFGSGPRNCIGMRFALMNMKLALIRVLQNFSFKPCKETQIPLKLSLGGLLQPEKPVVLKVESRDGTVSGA
Chain of Histone deacetylase 2 (Q92769 whole entry): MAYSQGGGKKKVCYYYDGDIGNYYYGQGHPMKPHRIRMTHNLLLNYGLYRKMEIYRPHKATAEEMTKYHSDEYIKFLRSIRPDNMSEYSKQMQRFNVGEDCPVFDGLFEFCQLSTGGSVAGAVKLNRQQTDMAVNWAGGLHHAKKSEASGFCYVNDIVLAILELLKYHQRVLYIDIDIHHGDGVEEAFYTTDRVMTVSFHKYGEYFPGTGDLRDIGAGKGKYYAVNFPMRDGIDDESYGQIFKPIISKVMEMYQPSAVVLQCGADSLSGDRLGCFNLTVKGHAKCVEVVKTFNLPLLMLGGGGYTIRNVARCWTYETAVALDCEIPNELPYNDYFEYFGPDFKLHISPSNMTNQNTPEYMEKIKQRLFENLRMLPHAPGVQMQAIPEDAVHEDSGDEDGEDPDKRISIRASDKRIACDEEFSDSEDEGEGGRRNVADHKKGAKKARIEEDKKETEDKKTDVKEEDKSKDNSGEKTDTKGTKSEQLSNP

remaining at 1 h, 1 µM [1]: 94%
IC50 [2]: > 10000 nM
IC50 (Cytochrome P450 3A4): 233 nM
IC50 (Histone deacetylase 2): 400 nM
IC50 (Histone deacetylase 7): > 10000 nM
IC50 (MCF7 [10]): 2000 nM
inhibition [11]: Active
half-life at 1 µM [15]: 7.1 min
remaining at 1 h, 1 µM [17]: 99%
SMILES: N=C(NO)c1ccc2nc(-c3cccc(-c4cn5ccccc5n4)c3)[nH]c2c1
Ratio IC50 (Homo sapiens [3]): > 44
Activity (MCF7 [4]): Active
inhibition (MCF7 [5]): Active
Ratio IC50 (Homo sapiens [6]): > 44
Activity (MCF7 [7]): Active
Ratio IC50 (Homo sapiens [8]): > 44
Ratio IC50 (Homo sapiens [9]): > 44
inhibition (MCF7 [12]): Active
Activity (MCF7 [13]): Active
Ratio IC50 (Homo sapiens [14]): > 44
fold change (FC) [16]: 3.2
Ratio IC50 (Homo sapiens [18]): > 44
